Assay results taken from patent US10138214B2, “Substituted triazoles and methods relating thereto” (Neurocrine Biosciences, Inc., priority 2015, dated 2018).

Assays:
[1] = system: hippocampal-kindled focal seizures; experiment: Hippocampal-kindled rat test (focal seizures); format: in vivo, rats; conditions: i.p. injection
Method: Electrodes are implanted into the hippocampus of anesthetized rats, which are then allowed to recover for 1 week. Following the rapid kindling protocol (Lothman et al., Brain Res., 1994. 649:71-84), the rats are stimulated with […] for 10 s, 50 Hz, every 30 min for 6 h on alternate days until they are fully kindled (4-5 stimulus days). After 1 week of rest, the animals are given the same electrical stimulus, which served as a baseline. The animals are pretreated with the test compound (by i.p. injection) and then tested at various intervals. At each time point, the behavioral seizure score and after-discharge duration are recorded. The behavioral seizure scores are scored according to the following criteria (Racine, Electroencephalogr Clin Neurophysiol, 1972. 32(3):281-94): stage 1—mouth and facial clonus; stage 2—stage 1 plus head nodding; stage 3—stage 2 plus forelimb clonus; stage 4—stage 3 plus rearing, and stage 5—stage 4 plus repeated rearing and falling. The after-discharge threshold (ADT) can also be measured in the kindled rat. The ADT is defined as the lowest current at which an after-discharge of at least 4 s is elicited. […] The initial stimulation is conducted at an intensity of 20 μA with 10 μA increments every 1-2 min until an after-discharge was elicited. Fifteen minutes after the predrug threshold determination, a single dose of the test substance is administered to 2 animals in a volume of 0.04 ml/10 g body weight. In this way, the animals serve as their own control. The individual rat ADT is then determined at varying times (i.e., 0.25, 1, 2 and 4 h) after drug administration.

[2] = system: pilocarpine-induced convulsive status epilepticus; experiment: Pilocarpine rat model (initial qualitative efficacy screen); format: in vivo, Sprague Dawley rats; conditions: i.p., administered after seizure onset, mpk=mg/kg
Method: Compounds are assessed for their ability to halt pilocarpine-induced convulsive status epilepticus (SE). To identify doses of drug to be used in the SE testing, acute motor impairment is assessed following the intraperitoneal (i.p.) administration of doses starting at 100 and 300 mg/kg. Individual Sprague Dawley rats are evaluated for acute toxicity over several time points following administration of test compounds. The results obtained from this initial study determine whether any dose adjustments are required. The behavior of the animals is observed closely and recorded over a four hour period. Routinely, a minimum number of four rats, two per dose are employed in this acute screen.
To determine if the test substance can halt acute pilocarpine-induced status an initial qualitative efficacy screen is performed. A challenge dose of pilocarpine (50 mg/kg) is administered i.p. and animals observed until the first convulsive (e.g., Stage 3, 4, or 5) seizure (time zero). The seizure severity is determined using the Racine scale. At this point a minimally toxic dose of the candidate drug is administered to a group of 8 male albino Sprague Dawley rats (150-180 g) via the i.p. route of administration. Efficacy is defined by the ability of an investigational drug to halt the further expression of pilocarpine induced convulsive seizures (e.g., Stage 3, 4, or 5). […] In this test, the investigational drug is administered 30 minutes after the first observed convulsive seizure. This is a more severe test of a candidate's ability to halt the induced status. […] A minimum of 4 doses with at least 8 rats per dose are utilized in the quantification study.

harmaline-induced tremor = experiment: Harmaline-induced tremor assay; format: in vivo, ICR mice; conditions: mice, harmaline 30 mg/kg s.c.; oral doses noted; p<0.05; mpk=mg/kg
Excerpt: The harmaline-induced tremor assay is the primary preclinical model of induced tremor. Male ICR mice (10 weeks old) were used in this study. Mice were group housed in OPTI mouse ventilated cages. All animals remained group housed during the duration of the study. All mice were acclimated to the colony room for at least one week prior to testing. During the period of acclimation, mice were examined on a regular basis, handled, and weighed to assure adequate health and suitability. Mice were maintained on a 12/12 light/dark cycle. The room temperature was maintained between 20 and 23° C. with a relative humidity maintained between 30% and 70%. Chow and water were provided ad libitum for the duration of the study. In each test, animals were randomly assigned across treatment groups. Ten mice were tested in each group. […] After habituation, tremor activity of the mice was measured for approximately 8 min. The recorded frequencies (1-64 Hz) of activity and the number of tremor events were captured electronically. Data were analyzed by the tremor monitor software (San Diego Instruments) in a two part process. Using a Fast Fourier Transform (FFT), an output is provided showing the percentage of activity (energy) recorded at each frequency. […] Data were analyzed by analysis of variance (ANOVA) followed by Fisher PLSD post-hoc analysis. […]

| Structure (SMILES) | ED50 [1] | Dose at which activity was shown [2] [mpk] | active at (dose) [1] | Dose showing significant reductions in total tremors (harmaline-induced tremor) [mpk] |
| --- | --- | --- | --- | --- |
| Fc1cccc(F)c1Cn1cc(N2CCOCC2)nn1 [Compound 10a, 4-{1-[(2,6-difluorophenyl)methyl]-1H-1,2,3-triazol-4-yl}morpholine] | ED50 32 mpk | 65 | – | – |
| N[C@@H](Cc1ccccc1)C(=O)Nc1cn(Cc2c(F)cccc2F)nn1 [Compound 3a, (2S)-2-amino-N-{1-[(2,6-difluorophenyl)methyl]-1H-1,2,3-triazol-4-yl}-3-phenylpropanamide] | – | 200 | active at 200 mpk | – |
| O=C1OCCN1c1cn(Cc2c(F)cccc2F)nn1 [Compound 15a, 3-{1-[(2,6-difluorophenyl)methyl]-1H-1,2,3-triazol-4-yl}-1,3-oxazolidin-2-one] | – | – | – | 50 |
| O=C(Nc1cn(Cc2c(F)cccc2F)nn1)[C@@H]1COCCN1 [Compound 3c, (3S)—N-{1-[(2,6-difluorophenyl)methyl]-1H-1,2,3-triazol-4-yl}morpholine-3-carboxamide] | – | – | active at 50 mpk | – |
| O=C(Nc1cn(Cc2c(F)cccc2F)nn1)[C@H]1COCCN1 [Compound 3d, (3R)—N-{1-[(2,6-difluorophenyl)methyl]-1H-1,2,3-triazol-4-yl}morpholine-3-carboxamide] | ED50 79 mpk | 450 | – | – |
| Fc1cccc(F)c1Cn1cc(N2CCCC2)nn1 [Compound 10f, 1-[(2,6-difluorophenyl)methyl]-4-(pyrrolidin-1-yl)-1H-1,2,3-triazole] | – | 65 | – | – |
| O=C1NCCN1c1cn(Cc2c(F)cccc2F)nn1 [Compound 16a, 1-{1-[(2,6-difluorophenyl)methyl]-1H-1,2,3-triazol-4-yl}imidazolidin-2-one] | – | – | active at 100 mpk | – |
| CN(C)c1cn(Cc2c(F)cccc2F)nn1 [Compound 8a, [1-(2,6-difluoro-benzyl)-1H-[1,2,3]triazol-4-yl]-dimethyl-amine] | ED50 25 mpk | 65 | – | – |
| O=C1CCCN1c1cn(Cc2c(F)cccc2F)nn1 [Compound 14a, 1-{1-[(2,6-difluorophenyl)methyl]-1H-1,2,3-triazol-4-yl}pyrrolidin-2-one] | – | – | – | 50 |
